# Test results as given in ChEMBL document CHEMBL1135808, “A new type of mixed anhydride and its applications to the synthesis of 7-substituted 8-chloro-5,5-dioxoimidazo[1,2-b][1,4,2]benzodithiazines with in vitro antitumor activity” (2002).
# What was measured:
# Type in all cases: functional
# [1] = tested on: K562; assay: Log of molar concentration leading to 50% cell death against leukemia K-562 cell line was reported; settings: Homo sapiens, read-out: Log LC50 (the source's name) (converted)
# [2] = tested on: Hs-578T; assay: In vitro total growth inhibition against breast cancer HS 578T cell lines was reported.; settings: Homo sapiens, read-out: Log TGI (converted)
# [3] = tested on: CAKI-1; assay: Log of molar concentration leading to 50% cell death against renal cancer CAKI-1 cell line was reported; settings: Homo sapiens, read-out: Log LC50 (the source's name) (converted)
SMILES,CC50 [1],TGI [2],CC50 [3]
O=C(Nc1nccs1)c1cc2c(cc1Cl)Sc1nccn1S2(=O)=O,87.1 µM,91.2 µM,
O=C(Nc1cccc2nsnc12)c1cc2c(cc1Cl)Sc1nccn1S2(=O)=O,,,51.3 µM
